The experiment deals with T1, m1 muscarinic receptor (Rattus norvegicus, UniProt P08482).
T1 construct: expressed in transfected cells; host or cells: A9 L cells (mouse fibroblast line)
T1 sequence (P08482 1-460): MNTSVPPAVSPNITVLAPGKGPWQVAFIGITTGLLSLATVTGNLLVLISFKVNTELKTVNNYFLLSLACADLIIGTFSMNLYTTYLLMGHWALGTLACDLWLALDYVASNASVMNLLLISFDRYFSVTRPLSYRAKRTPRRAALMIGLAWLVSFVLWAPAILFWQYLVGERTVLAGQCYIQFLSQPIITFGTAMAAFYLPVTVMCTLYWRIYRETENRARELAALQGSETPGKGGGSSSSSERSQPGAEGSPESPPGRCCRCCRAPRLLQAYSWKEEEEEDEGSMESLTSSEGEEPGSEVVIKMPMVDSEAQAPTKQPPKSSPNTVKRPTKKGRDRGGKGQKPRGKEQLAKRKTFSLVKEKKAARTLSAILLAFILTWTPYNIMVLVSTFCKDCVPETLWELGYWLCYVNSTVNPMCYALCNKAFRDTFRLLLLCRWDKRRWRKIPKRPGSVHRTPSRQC
The experiment in a line: IP hydrolysis in A9 L cells cloned with the genetic m1 muscarinic receptor. In kind it is cell-based, human and rat. To be noted: for Emax: A9L-m1, 0.75 h, read-out: % PI (efficacy); for Emax / % PI (efficacy): percentage of total [3H]IP accumulated in the presence of 100 µM carbachol stimulation, 37°C for 45 min; for EC50: IP hydrolysis, seven point curves, three separate experiments.

Structures can show the parent of a compound that is named as a salt. Where two headings read alike, the source gives them in different places.

Procedure: IP hydrolysis in A9 L cells cloned with the genetic m, muscarinic receptor: A9 L cells transfected with human and rat m, muscarinic receptors (Dörje et al., 1991; Jones et al., 1988), were cultured to confluence in 75-ml flasks containing Dulbecco's modified essential media. Cells were prelabeled with 1 µCi/ml of myo(2-[^3H]inositol (Amersham Inc., 16.3 Ci/mmol) for 48 hr before assaying. On the day of assay, cells were detached using a 30-sec exposure to 0.25% trypsin in 1 mM EDTA. The cells were collected by centrifugation (300 x g for 5 min) and resuspended in oxygenated HEPES buffer containing 10 mM LiCl (NaCl 142 mM, KCl 5.6 mM, CaCl2 2.2 mM, MgCl2 1 mM, NaHCO3 3.6 mM, D-glucose 5.6 mM and Na^+ HEPES 30 mM, pH 7.4). Cells were incubated at 37°C for 45 min in the presence of varying concentrations of test compounds. Total IP hydrolysis was determined using the method of Schoepp and Johnson (1988). […] Half-maximal (EC50) values were determined from the mean (±S.D.) of seven point curves determined from three separate experiments.

In general, EC50 refers to the midpoint of the concentration-response curve. For the compound `CC(C)C(C#Cc1ccsc1)Oc1nsnc1C1CN2CCC1C2` (mixture of isomers) [Compound 16, Exo (+-) 3-(3-(1-(3-Thienyl)-4-methyl-1-pentyn-3-yloxy)-1 ,2,5-thiadiazol-4-yl)-1-azabicyclo[2.2.1]heptane, (+)-tartrate], the Emax was determined as 56%. Moreover, the EC50 (read-out: EC50) came to 14 nM.
On the same counts, the results for `C(#Cc1ccccc1)COc1nsnc1[C@H]1CN2CC[C@@H]1C2` (racemic) [Compound 1, Endo (+-) 3-(3-(3-Phenyl-2-propyn-1-yloxy)-1,2,5-thiadiazol-4-yl)-1-azabicyclo[2 2.1]heptane,(+)--tartrate] are 80% and 210 nM.
In the same order, the values of `Fc1ccc(C#CCOc2nsnc2[C@H]2CN3CC[C@@H]2C3)cc1` (racemic) [Compound 2, Endo (+-) 3-(3-(3-(4-Fluorophenyl)-2-propyn-1-yloxy)-1,2,5-thiadiazol-4-yl)-1-azabicyclo[2.2.1]heptane,(+)-tartrate] are 74% and 1800 nM.
Consider `C(#Cc1ccccc1)COc1nsnc1C1CN2CCC1C2` (racemic) [Compound 13, Exo (+-) 3-(3-(3-Phenyl-2-propyn-1-yloxy)-1.2.5-thiadlazol-4-yl)-1-azabicyclo[2 2.1]heptane, (+)-tartrate], for which the Emax was 100%. Besides, the EC50 (read-out: EC50) was determined as 0.7 nM.
`C(#Cc1ccccc1)COc1nsnc1C1CN2CCC1CC2` (racemic) [Compound 53, (+-)3-(3-(3-Phenyl-2-propyn-1-yloxy)-1,2,5-thiadiazol-4-yl)-1-azabicyclo[2.2.2]octane, oxalate] had an EC50 (EC50, nM) of 13 nM.
Turning to `Fc1ccc(C#CCOc2nsnc2C2CN3CCC2CC3)cc1` (racemic) [Compound 54, (+-) 3-(3-(3-(4-Fluorophenyl)-2-propyn-1-yloxy)-1,2,5-thiadiazol-4-yl)-1-azabicyclo[2.2.2]octane, oxalate], under “read-out: EC50”, the EC50 worked out at 224 nM.
In the case of `Fc1ccc(C#CCOc2nsnc2[C@H]2CN3CC[C@@H]2C3)cc1` (single isomer, unassigned) [Compound 3, Endo (α)-3-(3-(3-(4-Fluorophenyl)-2-propyn-1-yloxy)-1.2.5-thiadiazol-4-yl)-1-azabicyclo[2.2.1]heptane.(+)-tartrate], the Emax is 81%. Besides, the EC50 (read-out: EC50) turned out to be 95 nM.
Turning to `C(#Cc1ccccc1)COc1nsnc1[C@H]1CN2CC[C@@H]1C2` (single isomer, unassigned) [Compound 4, Endo (α)-3-(3-(3-Phenyl-2-propyn-1-yloxy)-1,2,5-thiadiazol-4-yl)-1-azabicyclo[2.2.1]heptane, (+)-tartrate], the EC50 (read-out: EC50) stood at 159 nM. Where the note is “45 min”, the “% PI (efficacy)” value is listed as 77%.
In the same order, the values of `COc1cccc(C#CCOc2nsnc2[C@H]2CN3CC[C@@H]2C3)c1` (single isomer, unassigned) [Compound 5, Endo (α)-3-(3-(3-(3-Methoxyphenyl)-2-propyn-1-yloxy)-1,2,5-thiadiazol-4-yl)-1-azabicyclo[2.2.1]heptane, (+)-tartrate] are 42 nM and 73%.
For `C(#Cc1ccsc1)COc1nsnc1[C@H]1CN2CC[C@@H]1C2` (single isomer, unassigned) [Compound 7, Endo (α)-3-(3-[3-(3-Thienyl)-2-propyn-1-yloxy]-1,2,5-thiadiazol-4-yl)-1-azabicyclo[2.2 1]heptane, (+)-tartrate], the Emax worked out at 108%. Besides, the EC50 (read-out: EC50) worked out at 380 nM.
In the same order, the values of `C(#Cc1cccs1)COc1nsnc1[C@H]1CN2CC[C@@H]1C2` (single isomer, unassigned) [Compound 8, Endo (α)-3-(3-(3-(2-Thienyl)-2-propyn-1-yloxy)-1,2,5-thiadiazol-4-yl)-1-azabicyclo[2 2 1]heptane. (+)-tartrate] are 91% and 670 nM.
In the case of `Fc1ccc(C#CCOc2nsnc2[C@H]2CN3CC[C@@H]2C3)cc1` (single isomer, unassigned) [Compound 9, Endo (β)-3-(3-(3-(4-Fluorophenyl)-2-propyn-1-yloxy)-1.2.5-thiadiazol-4-yl)-1-azabicyclo[2 2.1]heptane, (-)-tartrate], the EC50 (read-out: EC50) turned out to be 38 nM. For the same compound, the “% PI (efficacy)” value (45 min) amounted to 68%.
Take `COc1cccc(C#CCOc2nsnc2[C@H]2CN3CC[C@@H]2C3)c1` (single isomer, unassigned) [Compound 10, Endo (β)-3-(3-(3-(3-Methoxyphenyl)-2-propyn-1-yloxy)-1,2,5-thiadiazol-4-yl)-1-azabicyclo[2.2.1]heptane, (-)-tartrate]: the Emax was 57%. Also, the EC50 (read-out: EC50) turned out to be 75 nM.
Turning to `C(#Cc1ccccc1)COc1nsnc1[C@H]1CN2CC[C@@H]1C2` (single isomer, unassigned) [Compound 11, Endo (β)-3-(3-(3-Phenyl-2-propyn-1-yloxy)-1,2,5-thiadiazol-4-yl)-1-azabicyclo[2.2.1]heptane, (+)-tartrate], the Emax came to 64%. The 50% effective concentration (EC50) (read-out: EC50) worked out at 98 nM.
For the compound `C(#Cc1ccccc1)CSc1nsnc1[C@@H]1CN2CCC[C@H]1C2` [Compound 20, Endo (5R,6S)-6-(3-(3-Phenyl-2-propyn-1-ylthio)-1,2,5-thiadiazol-4-yl)-1-azabicyclo[3,2 1]octane, (+)-tartrate], the Emax was found to be 98%. In addition, under “read-out: EC50”, the EC50 was 1 nM.
On the same counts, the results for `Fc1cccc(C#CCSc2nsnc2[C@@H]2CN3CCC[C@H]2C3)c1` [Compound 21, Endo (5R,6S)-6-(3-(3-(3-Fluorophenyl)-2-propyn-1-ylthio)-1,2,5-thiadiazol-4-yl)-1-azabicyclo[3.2.1]octane, (+)-tartrate] are 67% and 105 nM.
For the compound `C(#Cc1ccsc1)CSc1nsnc1[C@@H]1CN2CCC[C@H]1C2` [Compound 24, Endo (5R,6S)-6-(3-(3-(3-Thienyl)-2-propyn-1-ylthio)-1,2,5-thiadiazol-4-yl)-1-azabicyclo[3.2.1]octane, (+)-tartrate], the Emax was 105%. The EC50 (read-out: EC50) stood at 300 nM.
In the same order, the values of `C(#Cc1cccs1)CSc1nsnc1[C@@H]1CN2CCC[C@H]1C2` [Compound 25, Endo (5R,6S)-6-(3-(3-(2-Thienyl)-2-propyn-1-ylthio)-1,2,5-thiadiazol-4-yl)-1-azabicyclo[3.2.1]octane, (+)-tartrate] are 69% and 210 nM.
As to `C(#Cc1ccccc1)COc1nsnc1[C@@H]1CN2CCC[C@H]1C2` [Compound 26, Endo (5R,6S)-6-(3-(3-Phenyl-2-propyn-1-yloxy)-1,2,5-thiadiazol-4-yl)-1-azabicyclo[3 2 1]octane, (+)-tartrate], the Emax stood at 93%. Further, the EC50 (read-out: EC50) stood at 280 nM.
On the same counts, the results for `Fc1ccc(C#CCOc2nsnc2[C@@H]2CN3CCC[C@H]2C3)cc1` [Compound 27, Endo (5R,6S)-6-(3-(3-(4-Fluorophenyl)-2-propyn-1-yloxy)-1,2,5-thiadiazol-4-yl)-1-azabicyclo[3.2.1]octane, (+)-tartrate] are 79% and 187 nM.
In the same order, the values of `COc1cccc(C#CCOc2nsnc2[C@@H]2CN3CCC[C@H]2C3)c1` [Compound 28, Endo (5R,6S)-6-(3-(3-(3-Methoxyphenyl)-2-propyn-1-yloxy)-1,2,5-thiadiazol-4-yl)-1-azabicyclo[3.2.1]octane, (+)-tartrate] are 97% and 22 nM.
Regarding `C(#Cc1ccsc1)COc1nsnc1[C@@H]1CN2CCC[C@H]1C2.O=C(O)C(O)C(O)C(=O)O` [Compound 30, Endo (5R,6S)-6-(3-[3-(3-Thienyl)-2-propyn-1-yloxy]-1,2,5-thiadiazol-4-yl)-1-azabicyclo[3.2.1]octane, (+)-tartrate], the “% PI (efficacy)” value stood at 82%. The EC50 (read-out: EC50) is 20 nM.
For `C(#Cc1cccnc1)COc1nsnc1[C@@H]1CN2CCC[C@H]1C2` [Compound 31, Endo (5R,6S)-6-(3-[3-(3-Pyridyl)-2-propyn-1-yloxy]-1,2,5-thiadiazol-4-yl)-1-azabicyclo[3.2.1]octane, (+)-tartrate], it took 26 nM to reach a half-maximal effect (EC50, nM) (EC50).
With `C(#Cc1ccccc1)CSc1nsnc1[C@H]1C[N@@]2CCC[C@H]1C2` [Compound 39, Exo (5R,6R)-6-(3-(3-Phenyl-2-propyn-1-ylthio)-1,2,5-thiadiazol-4-yl)-1-azabicyclo[3.2.1]octane. (+)-tartrate], the Emax was 105%. Besides, where the note is “read-out: EC50”, the EC50 is 0.2 nM.
On the same counts, the results for `C(#Cc1ccccc1)COc1nsnc1[C@H]1C[N@@]2CCC[C@H]1C2` [Compound 40, Exo (5R,6R)-6-(3-(3-Phenyl-2-propyn-1-yloxy)-1,2,5-thiadiazol-4-yl)-1-azabicyclo[3.2.1]octane, oxalate] are 102% and 0.5 nM.
In the same order, the values of `COc1cccc(C#CCOc2nsnc2[C@H]2CN3CCC[C@H]2C3)c1` [Compound 41, Exo (5R,6R)-6-(3-(3-(3-Methoxyphenyl)-2-propyn-1-yfoxy)-1,2,5-thiadiazol-4-yl)-1-azabicyclo[3.2.1]octane, oxalate] are 100% and 2 nM.

(Values after patent publication EP0977755B1, “HETEROCYCLIC COMPOUNDS AND THEIR PREPARATION AND USE” (NOVO NORDISK A/S, priority 1997, dated 1998).)
